According to PubChem BioAssay AID1963825 (Molecular Pharmacology Branch, DTP, NCI, 2024):

Assay: Anticancer human tumor 997537-175-T-J1-PDC patient-derived colon adenocarcinoma cell line growth inhibition [POLQ]
Conditions: 997537-175-T-J1-PDC complex spheroid viability, combination with POLQ inhibitors; for IC50: curve of first compound; for viability, T/C: stronger effect = lower value
Method in brief: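 PDC + HUVEC + MSC complex spheroids; POLQ inhibitors ± partner drugs; top conc. at/near clinical Cmax, else 10 microM (SN-38 1 microM), half-log dilutions; 37 degrees C, 5% CO2.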

[1] = second compound 0.0316 µM, first compound 0.0316 µM
[2] = second compound 0.0316 µM, first compound 0.1 µM
[3] = second compound 0.0316 µM, first compound 0.316 µM
[4] = second compound 0.0316 µM, first compound 1 µM
[5] = second compound 0.1 µM, first compound 0.0316 µM
[6] = second compound 0.1 µM, first compound 0.1 µM
[7] = second compound 0.1 µM, first compound 0.316 µM
[8] = second compound 0.1 µM, first compound 1 µM
[9] = second compound 0.316 µM, first compound 0.0316 µM
[10] = second compound 0.316 µM, first compound 0.1 µM
[11] = second compound 0.316 µM, first compound 0.316 µM
[12] = second compound 0.316 µM, first compound 1 µM
[13] = second compound 1 µM, first compound 0.0316 µM
[14] = second compound 1 µM, first compound 0.1 µM
[15] = second compound 1 µM, first compound 0.316 µM
[16] = second compound 1 µM, first compound 1 µM
[17] = second compound 3.16 µM, first compound 0.0316 µM
[18] = second compound 3.16 µM, first compound 0.1 µM
[19] = second compound 3.16 µM, first compound 0.316 µM
[20] = second compound 3.16 µM, first compound 1 µM
[21] = second compound 10 µM, first compound 0.0316 µM
[22] = second compound 10 µM, first compound 0.1 µM
[23] = second compound 10 µM, first compound 0.316 µM
[24] = second compound 10 µM, first compound 1 µM
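Further: luminescence signal used as a surrogate for viable cells; spheroids exposed to drugs for seven days before readout.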

COc1cccc(OCCCN)c1-c1cc(Nc2cnc(C#N)cn2)n[nH]1 + COC1C(OC(N)=O)C(O)C(Oc2ccc3c(O)c(NC(=O)c4ccc(O)c(CC=C(C)C)c4)c(=O)oc3c2C)OC1(C)C
IC50 (second compound 0.0316 µM): 46.8 nM
IC50 (second compound 0.1 µM): 121 nM
IC50 (second compound 0.316 µM): 77.8 nM
IC50 (second compound 1 µM): 32.4 nM
IC50 (second compound 3.16 µM): 57.5 nM
IC50 (second compound 10 µM): 59.9 nM
viability, T/C (second compound 0.0316 µM, first compound 0.00316 µM): 100%
viability, T/C (second compound 0.0316 µM, first compound 0.01 µM): 95.6%
viability, T/C [1]: 59.9%
viability, T/C [2]: 28.1%
viability, T/C [3]: 33.6%
viability, T/C [4]: 30.7%
viability, T/C (second compound 0.1 µM, first compound 0.00316 µM): 106%
viability, T/C (second compound 0.1 µM, first compound 0.01 µM): 64.9%
viability, T/C [5]: 76.8%
viability, T/C [6]: 43.2%
viability, T/C [7]: 51.6%
viability, T/C [8]: 17%
viability, T/C (second compound 0.316 µM, first compound 0.00316 µM): 107%
viability, T/C (second compound 0.316 µM, first compound 0.01 µM): 95%
viability, T/C [9]: 63.8%
viability, T/C [10]: 55.3%
viability, T/C [11]: 16.9%
viability, T/C [12]: 30.2%
viability, T/C (second compound 1 µM, first compound 0.00316 µM): 105%
viability, T/C (second compound 1 µM, first compound 0.01 µM): 88%
viability, T/C [13]: 52.2%
viability, T/C [14]: 24.1%
viability, T/C [15]: 23.2%
viability, T/C [16]: 24.4%
viability, T/C (second compound 3.16 µM, first compound 0.00316 µM): 104%
viability, T/C (second compound 3.16 µM, first compound 0.01 µM): 80.7%
viability, T/C [17]: 55.8%
viability, T/C [18]: 48.7%
viability, T/C [19]: 28.6%
viability, T/C [20]: 47.1%
viability, T/C (second compound 10 µM, first compound 0.00316 µM): 95.2%
viability, T/C (second compound 10 µM, first compound 0.01 µM): 79.8%
viability, T/C [21]: 73.1%
viability, T/C [22]: 31.4%
viability, T/C [23]: 24.9%
viability, T/C [24]: 28%

CC1COCCN1c1cc(C2(O)CC3CCC(C2)O3)c2cnn(-c3ccn[nH]3)c2n1 (centres undefined) + COC1C(OC(N)=O)C(O)C(Oc2ccc3c(O)c(NC(=O)c4ccc(O)c(CC=C(C)C)c4)c(=O)oc3c2C)OC1(C)C
IC50 (second compound 0.0316 µM): 234 nM
IC50 (second compound 0.1 µM): 276 nM
IC50 (second compound 0.316 µM): 290 nM
IC50 (second compound 1 µM): > 10000 nM
IC50 (second compound 3.16 µM): > 10000 nM
IC50 (second compound 10 µM): > 10000 nM
viability, T/C [1]: 72.4%
viability, T/C [2]: 70.1%
viability, T/C [3]: 42.2%
viability, T/C [4]: 36.9%
viability, T/C (second compound 0.0316 µM, first compound 3.16 µM): 40.1%
viability, T/C (second compound 0.0316 µM, first compound 10 µM): 52%
viability, T/C [5]: 75.6%
viability, T/C [6]: 81.3%
viability, T/C [7]: 36%
viability, T/C [8]: 37.9%
viability, T/C (second compound 0.1 µM, first compound 3.16 µM): 50.3%
viability, T/C (second compound 0.1 µM, first compound 10 µM): 60.8%
viability, T/C [9]: 84.2%
viability, T/C [10]: 66.8%
viability, T/C [11]: 41.2%
viability, T/C [12]: 51.1%
viability, T/C (second compound 0.316 µM, first compound 3.16 µM): 51.4%
viability, T/C (second compound 0.316 µM, first compound 10 µM): 50.8%
viability, T/C [13]: 82.9%
viability, T/C [14]: 68%
viability, T/C [15]: 59.5%
viability, T/C [16]: 55.3%
viability, T/C (second compound 1 µM, first compound 3.16 µM): 64.2%
viability, T/C (second compound 1 µM, first compound 10 µM): 42.8%
viability, T/C [17]: 82.8%
viability, T/C [18]: 68.1%
viability, T/C [19]: 47.9%
viability, T/C [20]: 48.9%
viability, T/C (second compound 3.16 µM, first compound 3.16 µM): 61.7%
viability, T/C (second compound 3.16 µM, first compound 10 µM): 50.8%
viability, T/C [21]: 71.3%
viability, T/C [22]: 60.5%
viability, T/C [23]: 41.1%
viability, T/C [24]: 58.3%
viability, T/C (second compound 10 µM, first compound 3.16 µM): 61.7%
viability, T/C (second compound 10 µM, first compound 10 µM): 63.6%
